Laboratory results from ChEMBL document CHEMBL1201862, “PubChem BioAssay data set” (2004).
Activity calls are given as the source filed them.

Experiments:
[1] = target: T1, RNA-binding protein pos-1 (Caenorhabditis elegans, UniProt G5EF15); assay: disruptors of C. elegans POS-1 RNA interaction – biochemical, fluorescence polarization, dose response (AID 1964);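 note: purified POS-1 fused to maltose binding protein made in E. coli; potency of compounds blocking POS-1 binding to fluorescent RNA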
T1 sequence (G5EF15 whole entry): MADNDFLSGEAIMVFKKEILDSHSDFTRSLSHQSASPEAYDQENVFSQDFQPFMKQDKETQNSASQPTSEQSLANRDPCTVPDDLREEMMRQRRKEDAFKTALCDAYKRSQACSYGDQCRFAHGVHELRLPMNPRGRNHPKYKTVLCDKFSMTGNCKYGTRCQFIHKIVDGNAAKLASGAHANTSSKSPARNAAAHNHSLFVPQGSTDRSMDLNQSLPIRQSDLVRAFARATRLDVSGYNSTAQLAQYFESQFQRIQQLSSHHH

[2] = target: T2, Long-chain-fatty-acid--AMP ligase FadD28 (Mycobacterium tuberculosis, UniProt P9WQ59); assay: Fluorescence polarization aasay to screen for inhibitors that compete for the binding of FadD28 to a bisubstrate Measured in Biochemical System Using Plate Reader - 2147-01_Inhibitor_Dose_CherryPick_Activity.; format: functional, Mycobacterium tuberculosis H37Rv
T2 sequence (P9WQ59 whole entry): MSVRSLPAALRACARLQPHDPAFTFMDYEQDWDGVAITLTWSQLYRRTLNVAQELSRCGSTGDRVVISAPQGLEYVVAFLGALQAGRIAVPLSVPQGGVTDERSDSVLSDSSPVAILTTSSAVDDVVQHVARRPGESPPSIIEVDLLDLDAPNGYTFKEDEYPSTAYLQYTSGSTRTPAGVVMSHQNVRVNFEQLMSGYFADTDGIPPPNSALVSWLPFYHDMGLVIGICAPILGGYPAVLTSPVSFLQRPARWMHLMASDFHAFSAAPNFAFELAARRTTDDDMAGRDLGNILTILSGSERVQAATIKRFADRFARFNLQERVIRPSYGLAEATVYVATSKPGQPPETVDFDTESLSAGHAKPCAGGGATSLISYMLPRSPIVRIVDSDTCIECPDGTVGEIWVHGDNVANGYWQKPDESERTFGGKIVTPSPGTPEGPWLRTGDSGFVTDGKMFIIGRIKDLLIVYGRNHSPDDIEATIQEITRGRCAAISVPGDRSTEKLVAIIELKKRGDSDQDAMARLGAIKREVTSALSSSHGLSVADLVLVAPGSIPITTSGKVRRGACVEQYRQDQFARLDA

[3] = cells
[4] = target: T3, Aminopeptidase N (Plasmodium falciparum FcB1/Columbia, UniProt O96935); assay: malaria alanyl aminopeptidase activity blockers – biochemical, fluorogenic H-Leu-NHMec substrate, 1536-well (AID 1445); set-up: species or system Plasmodium falciparum 3D7, 3D7
T3 sequence (O96935 whole entry): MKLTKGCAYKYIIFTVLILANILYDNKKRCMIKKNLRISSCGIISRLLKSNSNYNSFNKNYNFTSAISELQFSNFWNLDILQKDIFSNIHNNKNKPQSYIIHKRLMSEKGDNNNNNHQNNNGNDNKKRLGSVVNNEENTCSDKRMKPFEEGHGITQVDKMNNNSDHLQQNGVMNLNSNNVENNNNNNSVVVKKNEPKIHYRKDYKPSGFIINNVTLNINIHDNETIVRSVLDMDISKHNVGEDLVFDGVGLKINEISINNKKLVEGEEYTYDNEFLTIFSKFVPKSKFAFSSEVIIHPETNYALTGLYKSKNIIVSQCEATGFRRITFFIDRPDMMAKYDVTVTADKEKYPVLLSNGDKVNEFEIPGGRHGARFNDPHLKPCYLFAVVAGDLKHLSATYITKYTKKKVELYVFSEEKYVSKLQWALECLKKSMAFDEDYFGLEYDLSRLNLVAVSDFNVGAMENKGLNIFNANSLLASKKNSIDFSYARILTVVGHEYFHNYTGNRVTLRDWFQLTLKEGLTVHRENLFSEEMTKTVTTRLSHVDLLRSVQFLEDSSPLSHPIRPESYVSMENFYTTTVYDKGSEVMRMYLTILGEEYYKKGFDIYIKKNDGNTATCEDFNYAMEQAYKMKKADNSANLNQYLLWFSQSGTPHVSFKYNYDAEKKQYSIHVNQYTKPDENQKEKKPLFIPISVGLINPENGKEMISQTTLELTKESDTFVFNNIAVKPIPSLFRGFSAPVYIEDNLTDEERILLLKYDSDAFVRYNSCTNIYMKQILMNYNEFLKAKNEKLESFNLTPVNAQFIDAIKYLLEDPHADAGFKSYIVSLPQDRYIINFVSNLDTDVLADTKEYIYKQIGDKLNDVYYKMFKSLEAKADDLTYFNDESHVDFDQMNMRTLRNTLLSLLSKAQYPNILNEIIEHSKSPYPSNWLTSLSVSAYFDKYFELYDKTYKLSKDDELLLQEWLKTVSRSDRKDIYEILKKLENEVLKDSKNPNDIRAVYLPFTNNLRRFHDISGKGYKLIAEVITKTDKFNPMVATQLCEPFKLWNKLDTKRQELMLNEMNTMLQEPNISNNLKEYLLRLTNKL

[5] = test system: Streptococcus sp. 'group A'; assay: Streptococcus pyogenes SK(-)GAS viability under kanamycin – luminescence, BacTiterGlo, confirmation, counter-screen for streptokinase expression inhibitor project, dose response (AID 1900); format: functional, organism-based
[6] = target: T4, Zinc finger protein mex-5 (Caenorhabditis elegans, UniProt Q9XUB2); assay: potency of MEX-5 RNA-binding blockers – biochemical, C. elegans, fluorescence polarization, dose response (AID 1960)
T4 sequence (Q9XUB2 whole entry): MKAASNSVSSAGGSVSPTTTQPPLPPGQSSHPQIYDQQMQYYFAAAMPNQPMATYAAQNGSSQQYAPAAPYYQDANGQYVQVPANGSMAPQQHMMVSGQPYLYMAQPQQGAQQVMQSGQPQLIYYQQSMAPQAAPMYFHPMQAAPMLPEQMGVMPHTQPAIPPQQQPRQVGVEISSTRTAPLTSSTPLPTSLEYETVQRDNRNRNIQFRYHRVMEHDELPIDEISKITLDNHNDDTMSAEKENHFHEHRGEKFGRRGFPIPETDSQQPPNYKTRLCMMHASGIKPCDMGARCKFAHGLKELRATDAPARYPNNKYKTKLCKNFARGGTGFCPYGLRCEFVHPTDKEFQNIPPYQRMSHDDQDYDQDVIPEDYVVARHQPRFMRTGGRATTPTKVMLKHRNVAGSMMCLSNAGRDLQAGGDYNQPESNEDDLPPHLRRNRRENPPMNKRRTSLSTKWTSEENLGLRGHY

[7] = CCR5-tropic HIV-1 fusion blockers – cell-based, CCR5-tropic Env, dose response (AID 2279); format: functional
[8] = target: Induced myeloid leukemia cell differentiation protein Mcl-1 (Homo sapiens, UniProt Q07820); format: functional
[9] = test system: Streptococcus; assay: GAS UMAA2166 growth inhibition – luminescence, BacTiterGlo, counter-screen for streptokinase expression inhibitor project, dose response (AID 1915); format: functional, organism-based;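 note: potency for reduction of bacterial viability or growth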
[10] = viability of uninfected HEp-2 cells – cell-based, HTS, cytotoxicity control for RSV inhibitor project, dose response (AID 2410); format: functional; details: human respiratory syncytial virus
[11] = luciferase reporter signal suppression in cells – H4 neuroglioma cells, luminescence, dose response (AID 1990); format: functional, cell-based
[12] = target: T5, Luciferin 4-monooxygenase (Photinus pyralis, UniProt P08659); assay: Counter Screen for Luciferase-based Assay Positives. [Related pubchem assays: 620, 618, 411 ]
[13] = Luminescence Cell-Based Dose Response HTS to Identify Inhibitors of 5'UTR Stem-Loop Driven Prion Protein mRNA Translation in H4 Neuroglioblastoma Cells. [Related pubchem assays: 1827 (Project Summary), 1813 (Primary HTS)]; format: functional
[14] = target: T6, Heat shock factor protein 1 (Mus musculus, UniProt P38532); assay: decrease of HSF1-responsive luciferase luminescence – cell-based, NIH3T3, dose retest, confirmation (AID 2382); format: functional;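 note: NIH3T3 fibroblasts with HSF1-driven luciferase reporter stressed by proteasome inhibitor MG132; luminescence from HSF1-driven luciferase expression after 8 hours of MG132 stress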
T6 sequence (P38532 whole entry): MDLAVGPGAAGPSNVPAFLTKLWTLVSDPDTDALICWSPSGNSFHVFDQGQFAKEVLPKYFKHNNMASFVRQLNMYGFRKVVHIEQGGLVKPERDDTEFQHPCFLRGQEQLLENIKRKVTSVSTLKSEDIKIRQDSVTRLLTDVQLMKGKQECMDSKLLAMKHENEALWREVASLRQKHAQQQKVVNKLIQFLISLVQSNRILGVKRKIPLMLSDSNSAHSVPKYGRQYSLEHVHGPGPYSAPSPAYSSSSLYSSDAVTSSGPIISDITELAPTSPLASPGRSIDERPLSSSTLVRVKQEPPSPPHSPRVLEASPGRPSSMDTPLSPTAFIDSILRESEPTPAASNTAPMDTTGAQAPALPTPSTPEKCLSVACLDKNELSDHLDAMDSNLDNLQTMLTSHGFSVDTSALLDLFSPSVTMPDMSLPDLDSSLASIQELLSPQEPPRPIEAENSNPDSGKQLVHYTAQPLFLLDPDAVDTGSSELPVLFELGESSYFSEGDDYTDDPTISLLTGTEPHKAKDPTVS

[15] = alpha-synuclein stem-loop luciferase translation blockers – H4 neuroglioma cells, luminescence, confirmation (AID 1988); format: functional, cell-based
[16] = target: T5, Luciferin 4-monooxygenase; assay: inhibition of purified Photinus pyralis luciferase – biochemical, luminescence, dose response (AID 1891)
[17] = Luminescence Cell-Based Dose Confirmation HTS to Identify Inhibitors of Platelet Dense Granule Release. [Related pubchem assays: 1663 (Primary HTS), 1678 (Summary of Project)]; format: functional
[18] = Luminescence-based counterscreen assay for KLF5 inhibitors: dose response cell-based high throughput screening assay to identify cytotoxic compounds using the IEC-6 intestinal epithelial cell line. [Related pubchem assays: 1700 (Primary screen.), 1834 (Confirmation screen.), 1858 (Summary AID.), 1905 (Counterscreen.)]; format: functional
[19] = test system: HT-1080; assay: HT1080 cell viability loss – fluorescence readout (AID 620); format: functional, cell-based; details: Homo sapiens
[20] = Fluorescence Cell-Based Dose Response to Identify Inhibitors of Thrombin Receptor-Activating Peptide SFLLRN-Mediated P-Selectin Induction on Platelets. [Related pubchem assays: 1663 (Primary HTS), 1889 (retest at dose ), 1891 (counterscreen), 1678 (Project Summary)]; format: functional
[21] = HEK-293T viability loss after treatment – luminescence, T-cell screen hits, cytotoxicity control for TCR NF-kB inhibitor project, dose response (AID 489026); format: functional, cell-based;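 note: cells exposed to compound about 14 hours before the viability readout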
[22] = blockers of HIV-1 envelope-mediated cell-cell fusion – cherry-pick, dose response (AID 652057); format: functional, cell-based
[23] = viability loss in CEM21 cells – cell-based, CellTiter-Glo luminescence, cherry-picked, cytotoxicity control for viral fusion inhibitor project, dose response (AID 652042); format: functional;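 note: potency for signal decrease meaning cytotoxicity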
[24] = blockers of HIV-1 ZM109 envelope-driven cell-cell fusion – HeLa effector, CEM target cells, luciferase, cherry-pick, dose response (AID 652058); format: functional, cell-based;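 note: luciferase signal from HIV-1 Env mediated cell-cell fusion of effector and target cells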
[25] = off-target signal loss in HeLa-CEM21 co-culture – HeLa F-luc CTL cells, cherry-picked, counter-screen for HIV-1 Env fusion inhibitor project, dose response (AID 652040); format: functional, cell-based;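 note: potency for signal decrease marking cytotoxic or nonspecific inhibition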
[26] = HIV-1 AD8 envelope cell-cell fusion blockers – cherry-pick, dose response (AID 652062); format: functional, cell-based;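 note: luciferase signal from cell-cell fusion driven by HIV-1 clade B AD8 Env; potency is for inhibitors of fusion seen as a drop in luminescence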
[27] = target: NS3 (Hepatitis C virus, UniProt A3EZJ3); assay: PubChem AID 2173; set-up: species or system Hepacivirus hominis
[28] = target: T7, Carboxy-terminal domain RNA polymerase II polypeptide A small phosphatase 1 (Homo sapiens, UniProt Q9GZU7); assay: CTDSP1 inhibitors, concentration-response, biochemical, absorbance readout, ultra-high-throughput screen actives (AID 540297); format: functional
T7 sequence (Q9GZU7 whole entry): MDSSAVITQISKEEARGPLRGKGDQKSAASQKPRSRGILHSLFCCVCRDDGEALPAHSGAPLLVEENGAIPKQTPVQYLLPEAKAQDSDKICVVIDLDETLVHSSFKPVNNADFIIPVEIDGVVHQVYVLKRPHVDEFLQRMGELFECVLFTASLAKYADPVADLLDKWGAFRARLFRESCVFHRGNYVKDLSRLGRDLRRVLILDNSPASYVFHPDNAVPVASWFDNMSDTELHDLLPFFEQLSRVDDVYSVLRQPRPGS

T5 sequence (P08659 whole entry): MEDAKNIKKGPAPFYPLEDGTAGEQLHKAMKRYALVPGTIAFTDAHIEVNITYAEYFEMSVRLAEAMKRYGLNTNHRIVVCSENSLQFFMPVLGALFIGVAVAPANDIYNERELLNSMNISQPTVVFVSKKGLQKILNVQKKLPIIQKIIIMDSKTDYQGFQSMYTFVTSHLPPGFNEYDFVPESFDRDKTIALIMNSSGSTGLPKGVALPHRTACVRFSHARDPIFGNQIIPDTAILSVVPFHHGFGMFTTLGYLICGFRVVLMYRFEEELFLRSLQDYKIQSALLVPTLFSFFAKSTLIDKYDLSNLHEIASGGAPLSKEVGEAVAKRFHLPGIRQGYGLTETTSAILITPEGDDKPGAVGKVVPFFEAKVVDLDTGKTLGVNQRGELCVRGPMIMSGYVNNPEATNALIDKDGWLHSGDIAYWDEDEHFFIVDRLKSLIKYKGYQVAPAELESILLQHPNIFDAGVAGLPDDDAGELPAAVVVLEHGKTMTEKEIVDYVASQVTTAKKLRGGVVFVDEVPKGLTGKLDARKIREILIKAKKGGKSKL
Chain of NS3 (A3EZJ3 whole entry, the tested form may be a part): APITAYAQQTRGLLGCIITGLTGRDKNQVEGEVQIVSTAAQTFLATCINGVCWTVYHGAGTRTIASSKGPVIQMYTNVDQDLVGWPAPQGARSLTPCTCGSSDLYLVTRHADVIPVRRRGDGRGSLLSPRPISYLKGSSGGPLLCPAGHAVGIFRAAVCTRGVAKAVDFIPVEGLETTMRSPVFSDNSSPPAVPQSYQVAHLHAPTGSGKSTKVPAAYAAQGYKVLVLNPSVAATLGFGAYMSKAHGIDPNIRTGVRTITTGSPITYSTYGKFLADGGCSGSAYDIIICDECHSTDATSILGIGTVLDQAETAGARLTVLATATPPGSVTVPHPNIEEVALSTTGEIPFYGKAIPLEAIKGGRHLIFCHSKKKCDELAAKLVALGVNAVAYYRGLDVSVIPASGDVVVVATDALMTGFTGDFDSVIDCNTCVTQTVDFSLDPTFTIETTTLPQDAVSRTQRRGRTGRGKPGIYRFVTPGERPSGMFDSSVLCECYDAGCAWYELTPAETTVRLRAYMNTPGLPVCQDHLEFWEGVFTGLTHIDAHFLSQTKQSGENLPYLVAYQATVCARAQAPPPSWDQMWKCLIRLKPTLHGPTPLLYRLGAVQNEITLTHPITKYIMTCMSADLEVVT
Chain of Induced myeloid leukemia cell differentiation protein Mcl-1 (Q07820 whole entry): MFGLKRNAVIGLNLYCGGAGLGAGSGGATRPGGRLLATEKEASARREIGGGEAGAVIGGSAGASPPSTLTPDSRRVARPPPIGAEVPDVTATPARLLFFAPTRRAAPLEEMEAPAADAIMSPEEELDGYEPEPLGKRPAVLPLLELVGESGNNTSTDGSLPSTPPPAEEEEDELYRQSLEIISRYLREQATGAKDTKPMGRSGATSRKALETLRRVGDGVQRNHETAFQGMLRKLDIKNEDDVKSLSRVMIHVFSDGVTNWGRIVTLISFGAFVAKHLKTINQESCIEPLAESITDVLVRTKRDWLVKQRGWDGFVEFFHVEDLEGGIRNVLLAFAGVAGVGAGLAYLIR

O=C(O)c1cc(-c2ccc(/C=C3\NC(=O)N(c4ccc(Cl)cc4)C3=O)o2)ccc1Cl
EC50 [1]: 39.7 µM (active) | AC50 [2]: 19.5 µM (active) | IC50 [3]: 23.2 µM (active)

O=c1cc(-c2ccccc2Cl)oc2c(NS(=O)(=O)c3cc(Cl)cc(Cl)c3O)ccc(O)c12
IC50 [4]: 51.6 µM (active) | EC50 [1]: > 300 µM (not active) | EC50 [5]: 1 µM (active) | EC50 [6]: 4.54 µM (inconclusive) | IC50 [7]: 4.77 µM (active) | IC50 [8]: 3.4 µM (active) | EC50 [9]: 2.26 µM (active)

COc1cccc(C(=O)Nc2cc(NC(=O)c3cccs3)ccc2C)c1OC
CC50 [10]: 38.2 µM (active) | IC50 [3]: 48.3 µM (active)

COC(=O)c1nn(-c2ccc3c(c2)CCN3C(C)=O)cc1O
EC50 [11]: 2.45 µM (inconclusive) | EC50 [12]: > 100 µM (not active) | EC50 [13]: 0.29 µM (active) | EC50 [14]: 0.665 µM (active) | EC50 [15]: 1.78 µM (active) | EC50 [16]: 15.8 µM (active) | EC50 [17]: 1.06 µM (active) | IC50 [18]: > 39.8 µM (not active) | EC50 [19]: > 50 µM (not active) | EC50 [20]: < 100 µM (not active) | IC50 [21]: > 80 µM (inactive) | AC50 [22]: 5.72 µM (active) | AC50 [23]: 45.5 µM (active) | AC50 [24]: 18.5 µM (active) | AC50 [25]: 3.07 µM (active) | AC50 [26]: 6.43 µM (active)

N#C/C(=C\c1ccc(OCc2ccc(C(=O)O)cc2)cc1)C(=O)NCc1ccccc1
IC50 [27]: 7.07 µM (active) | IC50 [28]: 7.1 µM (active)

COC(=O)c1sc(N2C(=O)C(O)=C(C(=O)c3ccc(C)o3)C2c2cc(OC)ccc2OC)nc1C (stereo unspecified)
IC50 [27]: 5.66 µM (active)
